The results in this text go back to patent US20220016099A1, “BENZIMIDAZOLE OR BENZOXAZOLE DERIVATIVES FOR PREVENTING AND TREATING CENTRAL NERVOUS SYSTEM DISEASE, DIABETES, AND COMPLICATIONS THEREOF” (TRINUERO, priority 2018, published 2022).

A value given as a limit tells only on which side of the number the result lay.

In the first assay the test system is Nrf2. In words: Nrf2 activity by A549-ARE luciferase assay. The assay is classed as cell-based. The conditions noted are these: A549-ARE cell line, 10 μM of each compound in DMSO; Nrf2 activity (%) of compound relative to DMSO using luciferase assay; read-out: Nrf2 activity. The protocol: Example 1: Method for Measuring Nrf2 Activity of Benzimidazole or Benzoxazole Derivatives Using A549-ARE Luciferase Assay
An assay for Nrf2 activity was performed by modification of the method reported in Ilse M. Beck et al., (2013), European Journal of Pharmacology 715. 1-9.
Specifically, A549-ARE cell line was dispensed into a 96-well plate, and then subjected to treatment with a solution obtained by dissolving 10 μM of each compound in Table 2 in dimethyl sulfoxide (DMSO). On the other hand, Compounds 1 and 13 as shown in Table 2 were obtained from Sigma-Aldrich (US); Compounds 2, 5, 8, 9 12, 15, 18 to 20, 23, 25, 30, and 32 were obtained from Tokyo Chemical Industry Co., Ltd. (JP); Compound 3 was obtained from Labseeker (CN); Compound 4 was obtained from BOC Science (US); Compounds 6 and 7 were obtained from Cambridge (US); Compounds 10, 11, 16, 17, 21, and 22 were obtained from Toronto Research Chemicals (CA); Compound 14 was obtained from Selleckchem (US); Compounds 24, 26, 27, and 31 were obtained from BLD Pharm (CN); Compounds 28 and 33 were obtained from Mcule (US); Compound 29 was obtained from Chemshuttle (US); and Compound 34 was obtained from Alinda (RU).
Thereafter, the 96-well plate was treated with 30 μl of luciferase lysis buffer (90.8 mM K2HPO4, 9.2 mM KH2PO4, 0.1% Triton X-100), and then incubated for 30 minutes or longer so that cell lysis proceeded. The incubated cell lysate was transferred to another 96-well plate (white plate), and then each well was treated with 100 μl of luciferase buffer mixture (20 mM Tricine, 1.07 mM [(MgCO3)4Mg(OH)2.5H2O], 2.67 mM [MgSO4.7H2O], 0.1 mM EDTA, 33.3 mM DTT, 270 μM coenzyme A [CoA], 500 μM D-luciferin, 530 μM ATP). Immediately after the treatment, […] was performed to check Nrf2 activity.
With `COCCCOc1ccnc(C[S+]([O-])c2nc3ccccc3[nH]2)c1C` (stereo not drawn) [Compound 19, rabeprazole, reference compound], the activity at 10 µM is greater than 100%.

As to `COc1ccc2[nH]c(SCc3ncc(C)c(OC)c3C)nc2c1` [Compound 2, omeprazole sulfide], the activity at 10 µM was in the range of 0 to 30%.

Take `COCCCOc1cc[n+]([O-])c(C[S+]([O-])c2nc3ccccc3[nH]2)c1C` (stereo not drawn) [Compound 22, rabeprazole N-oxide]: the activity at 10 µM was in the range of 70 to 100%.

For the compound `COc1ccnc(C[S+]([O-])c2nc3cc(OC(F)F)ccc3[nH]2)c1OC` (stereo not drawn) [Compound 14, pantoprazole, reference compound], the activity at 10 µM was in the range of 70 to 100%.

For the compound `COc1ccc2[nH]c([S+]([O-])Cc3ncc(C)c(OC)c3C)nc2c1` (stereo not drawn) [Compound 1, omeprazole, reference compound], the activity at 10 µM lay within 0 to 30%.

Regarding `Cc1c(OCC(F)(F)F)ccnc1CS(=O)(=O)c1nc2ccccc2[nH]1` [Compound 10, lansoprazole sulfone], the activity at 10 µM is 0 to 30%.

Consider `O=S(=O)(O)c1ccc2[nH]c(=S)[nH]c2c1` [Compound 25, 2-sulfanyl-1H-benzimidazole-5-sulfonic acid], for which the activity at 10 µM lay within 0 to 30%.

Take `O=c1[nH]c2ccc(Cl)cc2[nH]1` [Compound 26, 5-chloro-1,3-dihydrobenzimidazol-2-one]: the activity at 10 µM was in the range of 0 to 30%.

In the case of `COc1cc2nc(S)[nH]c2cc1OC` [Compound 34, 5,6-dimethoxy-1H-benzo[d]imidazol-2-thiol], the activity at 10 µM fell in the range of 0 to 30%.

With `COCCCOc1ccnc(CSc2nc3ccccc3[nH]2)c1C` [Compound 20, rabeprazole sulfide], the activity at 10 µM is greater than 100%.

As to `COCCCOc1ccnc(CS(=O)(=O)c2nc3ccccc3[nH]2)c1C` [Compound 21, rabeprazole sulfone], the activity at 10 µM was 0 to 30%.

Take `S=c1[nH]c2cc3ccccc3cc2[nH]1` [Compound 33, 1,3-dihydrobenzo[f]benzimidazole-2-thione]: the activity at 10 µM fell in the range of 0 to 30%.

Turning to `O=c1[nH]c2c(Cl)c(Cl)c(Cl)cc2o1` [Compound 28, 4,5,6-trichloro-3H-a,3-benzoxazol-2-one], the activity at 10 µM fell in the range of 0 to 30%.

As to `COc1ccc2[nH]c(S(=O)(=O)Cc3ncc(C)c(OC)c3C)nc2c1` [Compound 3, omeprazole sulfone], the activity at 10 µM is 0 to 30%.

Regarding `Cc1cccc2[nH]c(=S)[nH]c12` [Compound 24, 4-methyl-1H-benzimidazole-2-thiol], the activity at 10 µM was 0 to 30%.

As for `COc1ccc2[nH]c(=O)oc2c1` [Compound 29, 6-methoxybenzo[d]oxazol-2(3H)-one], the activity at 10 µM fell in the range of 30 to 70%.

Turning to `O=C1Cc2cc(O)ccc2N1` [Compound 27, 5-hydroxyindolin-2-one], the activity at 10 µM lay within 0 to 30%.

Regarding `COc1ccnc(CS(=O)(=O)c2nc3cc(OC(F)F)ccc3[nH]2)c1OC` [Compound 16, pantoprazole sulfone], the activity at 10 µM was in the range of 0 to 30%.

Regarding `Cn1c(S)nc2ccccc21` [Compound 13, 1-methyl-1H-benzimidazole-2-thiol], the activity at 10 µM lay in the range of 0 to 30%.

In the case of `O=c1[nH]c2cc(Cl)c(O)cc2o1` [Compound 31, 6-hydroxychlorzoxazone], the activity at 10 µM lay within 0 to 30%.

Regarding `COc1ccc2[nH]c(S)nc2c1` [Compound 5, 5-methoxy-2-benzimidazolethiol], the activity at 10 µM is 30 to 70%.

With `S=c1[nH]c2ccc(Cl)cc2[nH]1` [Compound 32, 5-chloro-2-mercaptobenzimidazole], the activity at 10 µM lay within 70 to 100%.

`Cc1c(OCC(F)(F)F)ccnc1CSc1nc2ccccc2[nH]1` [Compound 9, lansoprazole sulfide]: the activity at 10 µM was in the range of 70 to 100%.

As to `COc1cc[n+]([O-])c(C[S+]([O-])c2nc3cc(OC(F)F)ccc3[nH]2)c1OC` (stereo not drawn) [Compound 17, pantoprazole N-oxide], the activity at 10 µM lay within 70 to 100%.

Turning to `Cc1c(OCC(F)(F)F)cc[n+]([O-])c1C[S+]([O-])c1nc2ccccc2[nH]1` (stereo not drawn) [Compound 11, lansoprazole N-oxide], the activity at 10 µM fell in the range of 70 to 100%.

As to `Cc1c(OCC(F)(F)F)ccnc1C[S+]([O-])c1nc2ccccc2[nH]1` (stereo not drawn) [Compound 8, lansoprazole, reference compound], the activity at 10 µM was greater than 100%.

With `O=[N+]([O-])c1ccc2[nH]c(=S)[nH]c2c1` [Compound 30, 2-mercapto-5-nitrobenzimidazole], the activity at 10 µM lay in the range of 0 to 30%.

Consider `COc1ccc2[nH]c([S+]([O-])Cc3c(C)c(OC)c(C)c[n+]3[O-])nc2c1` (stereo not drawn) [Compound 4, omeprazole N-oxide], for which the activity at 10 µM fell in the range of 0 to 30%.

As to `COc1ccc2[nH]c(SC)nc2c1` [Compound 7, 5-methoxy-2-(methylthio)-1H-benzimidazole], the activity at 10 µM was in the range of 0 to 30%.

On to `FC(F)Oc1ccc2nc(S)[nH]c2c1` [Compound 18, 5-difluoromethoxy-2-mercaptobenzimidazole], for which the activity at 10 µM lay in the range of 0 to 30%.

Take `COc1ccnc(CSc2nc3cc(OC(F)F)ccc3[nH]2)c1OC` [Compound 15, pantoprazole sulfide]: the activity at 10 µM was 0 to 30%.

On to `COc1ccc2c(c1)nc(S)n2C` [Compound 6, 5-methoxy-1-methyl-1H-benzimidazole-2-thiol], for which the activity at 10 µM lay within 30 to 70%.

Staying with this assay, now noted: read-out: Nrf2 activity.
`Sc1nc2ccccc2[nH]1` [Compound 12, 2-mercaptobenzimidazole]: the activity at 10 µM fell in the range of 0 to 30%.
